One series concerns LNCaP. As to the kind of experiment: Antiproliferative activity against human LNCaP cells assessed as inhibition of cell proliferation incubated for 72 hrs by MTT assay. The class given is functional, cell-based.
In another series the test system is CWR22R. Kind of series: Antiproliferative activity against human 22Rv1 cells assessed as inhibition of cell proliferation incubated for 72 hrs by MTT assay. The format is functional, cell-based. The settings on record: 22Rv1, 72 h. A general note: Formazan colour is commonly taken as a measure of viable cells.
Series [1] relates to ACHN. Kind of series: Antiproliferative activity against human ACHN cells assessed as inhibition of cell proliferation incubated for 72 hrs by MTT assay. The class given is functional, cell-based.
Series [2] deals with M14. Kind of series: Antiproliferative activity against human M14 cells assessed as inhibition of cell proliferation incubated for 72 hrs by MTT assay. The class given is functional, cell-based. Particulars: M14, 72 h.
Series [3] has as its system SK-MEL-28. As to the kind of experiment: Antiproliferative activity against human SK-MEL-28 cells assessed as inhibition of cell proliferation incubated for 72 hrs by MTT assay. The class given is functional, cell-based. Particulars: SK-MEL-28, 72 h.
For another series, the system named is HFF. Kind of series: Cytotoxicity against human HFF cells assessed as reduction in cell viability incubated for 72 hrs by MTT assay. The class given is cell-based.
For series [4], the system named is ACHN. As to the kind of experiment: Antiproliferative activity against human ACHN cells assessed as inhibition of cell proliferation incubated for 24 hrs by MTT assay. The format is functional, cell-based.
Series [5] relates to ACHN. Kind of series: Potentiation of TRAIL-induced antiproliferative activity against human ACHN cells assessed as reduction in cell numbers by measuring IC50 pretreated with compound for 2 hrs followed by TRAIL addition and measured after 24 hrs by MTT assay. The format is functional, cell-based.
The test system of series [6] is M14. Kind of series: Antiproliferative activity against human M14 cells assessed as inhibition of cell proliferation incubated for 48 hrs by MTT assay. The settings on record: M14, 48 h. The class given is functional, cell-based.
For series [7], the system named is SK-MEL-28. As to the kind of experiment: Antiproliferative activity against human SK-MEL-28 cells assessed as inhibition of cell proliferation incubated for 48 hrs by MTT assay. The class given is functional, cell-based. The settings on record: SK-MEL-28, 48 h.
Series [8] concerns M14. Kind of series: Potentiation of poly I:C-induced antiproliferative activity against human M14 cells assessed as reduction in cell numbers by measuring IC50 pretreated with compound for 2 hrs followed by poly I:C addition and measured after 48 hrs by MTT assay. The format is functional, cell-based.
Series [9] relates to SK-MEL-28. As to the kind of experiment: Potentiation of poly I:C-induced antiproliferative activity against human SK-MEL-28 cells assessed as reduction in cell numbers by measuring IC50 pretreated with compound for 2 hrs followed by poly I:C addition and measured after 48 hrs by MTT assay. The format is functional, cell-based.
Series [10] is described as follows: Selectivity ratio of IC50 for HFF cells to IC50 for human LNCaP cells. The format is toxicity. Particulars: HFF cells versus LNCaP cells, read-out: Ratio IC50.
A short description of series [11]: Selectivity ratio of IC50 for HFF cells to IC50 for human 22Rv1 cells.

Here are results for four molecules from ChEMBL document CHEMBL4840375, “Ring A/B-Modified 17β-Hydroxywithanolide Analogues as Antiproliferative Agents for Prostate Cancer and Potentiators of Immunotherapy for Renal Carcinoma and Melanoma” (J Nat Prod, 2021).

For the molecule `CC(=O)OC[C@]12CC[C@H]3[C@@H](C[C@H]4O[C@]45[C@H](O)C=CC(=O)[C@]35C)[C@]1(O)CC[C@@]2(O)[C@@](C)(O)C1CC(C)=C(C)C(=O)O1` (some centres not stated), the IC50 – broadly, the concentration at which inhibition is half-maximal – in the series with LNCaP was 1740 nM; with CWR22R it was 330 nM; in the series on ACHN [1] it was 3.93 µM; in the series on M14 [2], > 5 µM; in the series on SK-MEL-28 [3] it was 3030 nM; with HFF, > 5000 nM. Besides, the IC50 with ACHN [4] is > 5 µM; in the series on ACHN [5], 270 nM; with M14 [6] it was > 5 µM; with SK-MEL-28 [7], > 5 µM; in the series with M14 [8] it was > 5000 nM; in the series with SK-MEL-28 [9], 4720 nM.

Consider `CC(=O)OC[C@]12CC[C@H]3[C@@H](C[C@H]4O[C@]45[C@@H](OC(C)=O)C=CC(=O)[C@]35C)[C@]1(O)CC[C@@]2(O)[C@@](C)(O)C1CC(C)=C(C)C(=O)O1` (some centres not stated), for which the IC50 is 920 nM in the series with LNCaP; 250 nM in the series with CWR22R; 1.27 µM in the series on ACHN [1]; > 5 µM in the series with M14 [2]; 1550 nM in the series on SK-MEL-28 [3]; 1520 nM with HFF. Further, the IC50 in the series on ACHN [4] is > 5 µM; in the series with ACHN [5], 250 nM; in the series on M14 [6], > 5 µM; with SK-MEL-28 [7] it was 2.73 µM; in the series with M14 [8], 1670 nM; with SK-MEL-28 [9], 1380 nM.

In the case of `CC(=O)OC[C@]12CC[C@H]3[C@@H](C[C@H]4O[C@]45[C@H](OC(C)=O)C=CC(=O)[C@]35C)[C@]1(O)CC[C@@]2(O)[C@@](C)(O)C1CC(C)=C(C)C(=O)O1` (some centres not stated), the IC50 with LNCaP was 1500 nM; in the series with CWR22R, 210 nM; in the series on ACHN [1], 3.31 µM; in the series with M14 [2], > 5 µM; with SK-MEL-28 [3] it was 2560 nM; in the series with HFF, > 5000 nM. Besides, the IC50 is > 5 µM with ACHN [4]; 250 nM in the series on ACHN [5]; > 5 µM in the series with M14 [6]; > 5 µM in the series with SK-MEL-28 [7]; > 5000 nM in the series on M14 [8]; 2620 nM in the series with SK-MEL-28 [9].

`CC(=O)OC[C@]12CC[C@H]3[C@@H](C[C@H]4O[C@]45CC=CC(=O)[C@]35C)[C@]1(O)CC[C@@]2(O)[C@@](C)(O)C1CC(C)=C(C)C(=O)O1` (some centres not stated): the IC50 in the series on M14 [2] is 1.57 µM; with SK-MEL-28 [3], > 5000 nM; in the series with HFF it was 2290 nM; in the series with ACHN [4] it was > 5 µM; in the series on ACHN [5], 160 nM; in the series with M14 [6], > 5 µM. For the same molecule, the IC50 with SK-MEL-28 [7] is > 5 µM; in the series on M14 [8], 110 nM; with SK-MEL-28 [9], 110 nM. Besides, the selectivity ratio in series [10] was determined as 115. In addition, the “Ratio IC50” value in series [11] amounted to 75.
